Tests used:
Type in all cases: functional, cell-based
P388 = assay: Cytotoxicity against mouse P388 cells
HT-29 = assay: Cytotoxicity against human HT-29 cells
A549 = assay: Cytotoxicity against human A549 cells

Measured: IC50

CC(=O)OC[C@]1(C)CCC[C@]2(C)[C@H]3C[C@@H](O)[C@]4(C)C5=C(CC[C@H]4[C@]3(C)CC[C@@H]12)COC5=O
≥ 1 µg/mL: all assays above

CC(=O)O[C@H]1CC[C@]2(C)[C@H]3C[C@@H](O)[C@]4(C)C5=C(CC[C@H]4[C@]3(C)CC[C@H]2C1(C)C)COC5=O
≥ 1 µg/mL: all assays above

CC(=O)O[C@@H]1c2occc2[C@@H](O)C[C@H]2[C@]3(C)CC[C@H]4C(C)(C)CCC[C@]4(C)[C@H]3C[C@@]21C [SALMAHYRTISOL A]
≥ 1 µg/mL: all assays above

CC1(C)CCC[C@]2(C)[C@H]3C[C@@H](O)[C@]4(C)c5cocc5C(=O)C[C@H]4[C@]3(C)CC[C@@H]12 [SALMAHYRTISOL B]
≥ 1 µg/mL: all assays above

Source: ChEMBL document CHEMBL1159300, “Salmahyrtisol A, a novel cytotoxic sesterterpene from the Red Sea sponge Hyrtios erecta” (J Nat Prod, 2002)
